From US10407409B2, “6-(5-hydroxy-1H-pyrazol-1-yl)nicotinamide inhibitors of PHD” (Takeda Pharmaceutical Company Limited, priority 2013, dated 2019)

How the values were obtained:
[1] = system: HIF1a protein in H9c2 rat cardiomyocytes; assay: Cell-based HIF-alpha stabilization assay (inhibition of PHD in cells); conditions: 24 hrs compound incubation, HIF1a protein by ELISA; for EC50: Rattus norvegicus, H9c2, 24 h, read-out: Inhibition of PHD in cells (pEC50) (converted)
In short: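 Rat H9c2 cardiomyocytes, cultured 24 h, were treated 24 h with an 11-point serial dilution of compound. HIF1a in whole-cell lysates was quantified by ELISA as % of the maximal desferrioxamine response. EC50 came from curve fitting; EC50pos is the concentration reaching 50% of the desferrioxamine maximum.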

[2] = molecular target: PHD2 enzyme (residues 181-417) (Homo sapiens (Human), UniProt Q9GZT9); assay: Inhibition of PHD enzyme (LC/MS peptide hydroxylation assay); type: biochemical; conditions: PHD2 (residues 181-417) 5 nM, 60 min pre-incubation; -log(IC50), IC50 molar
In short: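 PHD2 (5 nM final) preincubated with inhibitor 60 min at RT in 50 mM HEPES, 50 mM KCl, 0.5 mM TCEP, 2 uM FeCl2, 0.1 mg/ml BSA, pH 7.3. Reaction started with biotin-peptide (1 uM), 2-oxoglutarate (2 uM), ascorbate (1 mM), quenched at 60 min; hydroxylated product by LC/MS, reported as pIC50.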

Chain of PHD2 enzyme (residues 181-417) (Q9GZT9 181-417): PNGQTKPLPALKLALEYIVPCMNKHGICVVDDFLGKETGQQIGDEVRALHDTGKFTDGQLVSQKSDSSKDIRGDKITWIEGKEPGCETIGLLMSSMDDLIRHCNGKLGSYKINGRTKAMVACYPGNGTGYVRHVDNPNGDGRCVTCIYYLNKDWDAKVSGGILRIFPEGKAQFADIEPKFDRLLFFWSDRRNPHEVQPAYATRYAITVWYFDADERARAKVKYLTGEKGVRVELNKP

Compound	EC50 [1] [nM]	PHD Inhibition (pIC50) [2]	Inhibition of PHD in cells (pEC50) [1]
CCN1CCN(C(=O)c2ccc(-n3ncc(-c4cc(F)c(C#N)cc4C)c3O)nc2)C[C@H]1C [Example 395, (R)-4-(1-(5-(4-ethyl-3-methylpiperazine-1-carbonyl)pyridin-2-yl)-5-hydroxy-1H-pyrazol-4-yl)-2-fluoro-5-methylbenzonitrile]	2630	8.48	–
Cc1cc(C#N)c(F)cc1-c1cnn(-c2ccc(C(=O)N3CCN(C)CC3)cn2)c1O [Example 396, 2-fluoro-4-(5-hydroxy-1-(5-(4-methylpiperazine-1-carbonyl)pyridin-2-yl)-1H-pyrazol-4-yl)-5-methylbenzonitrile]	2090	8.59	–
CCN1CCN(C(=O)c2ccc(-n3ncc(-c4cc(F)c(C#N)cc4C)c3O)nc2)C[C@@H]1C [Example 397, (S)-4-(1-(5-(4-ethyl-3-methylpiperazine-1-carbonyl)pyridin-2-yl)-5-hydroxy-1H-pyrazol-4-yl)-2-fluoro-5-methylbenzonitrile]	1620	8.52	–
Cc1cc(C#N)c(F)cc1-c1cnn(-c2ccc(C(=O)N3CCOCC3)cn2)c1O [Example 398, 2-fluoro-4-(5-hydroxy-1-(5-(morpholine-4-carbonyl)pyridin-2-yl)-1H-pyrazol-4-yl)-5-methylbenzonitrile]	1950	8.65	–
Cc1cc(C#N)c(F)cc1-c1cnn(-c2ccc(C(=O)N3CCN(C)C4(CC4)C3)cn2)c1O [Example 399, 2-fluoro-4-(5-hydroxy-1-(5-(4-methyl-4,7-diazaspiro[2.5]octane-7-carbonyl)pyridin-2-yl)-1H-pyrazol-4-yl)-5-methylbenzonitrile]	1700	8.63	–
Cc1cc(C#N)c(F)cc1-c1cnn(-c2ccc(C(=O)N3CCN(C)[C@@H](C)C3)cn2)c1O [Example 400, (S)-4-(1-(5-(3,4-dimethylpiperazine-1-carbonyl)pyridin-2-yl)-5-hydroxy-1H-pyrazol-4-yl)-2-fluoro-5-methylbenzonitrile]	1660	8.50	–
Cc1cc(C#N)c(F)cc1-c1cnn(-c2ccc(C(=O)N3CCN(C)[C@H](C)C3)cn2)c1O [Example 401, (R)-4-(1-(5-(3,4-dimethylpiperazine-1-carbonyl)pyridin-2-yl)-5-hydroxy-1H-pyrazol-4-yl)-2-fluoro-5-methylbenzonitrile]	1580	8.44	–
COCCCNC(=O)c1ccc(-n2ncc(-c3ccc(C#N)c(C)c3)c2O)nc1 [Example 402, 6-(4-(4-cyano-3-methylphenyl)-5-hydroxy-1H-pyrazol-1-yl)-N-(3-methoxypropyl)nicotinamide]	4370	7.99	–
COCCCNC(=O)c1ccc(-n2ncc(-c3cc(C)c(C#N)cc3C)c2O)nc1 [Example 403, 6-(4-(4-cyano-2,5-dimethylphenyl)-5-hydroxy-1H-pyrazol-1-yl)-N-(3-methoxypropyl)nicotinamide]	1860	7.78	–
COCCCNC(=O)c1ccc(-n2ncc(-c3c(C)cc(C#N)cc3F)c2O)nc1 [Example 404, 6-(4-(4-cyano-2-fluoro-6-methylphenyl)-5-hydroxy-1H-pyrazol-1-yl)-N-(3-methoxypropyl)nicotinamide]	631	8.01	–
COCCCNC(=O)c1ccc(-n2ncc(-c3cc(F)c(C#N)cc3C)c2O)nc1 [Example 405, 6-(4-(4-cyano-5-fluoro-2-methylphenyl)-5-hydroxy-1H-pyrazol-1-yl)-N-(3-methoxypropyl)nicotinamide]	324	8.48	–
COCCCNC(=O)c1ccc(-n2ncc(-c3ccc(C#N)c(F)c3C)c2O)nc1 [Example 406, 6-(4-(4-cyano-3-fluoro-2-methylphenyl)-5-hydroxy-1H-pyrazol-1-yl)-N-(3-methoxypropyl)nicotinamide]	191	8.49	–
COCCCNC(=O)c1ccc(-n2ncc(-c3ccc(C#N)c(C)c3C)c2O)nc1 [Example 409, 6-(4-(4-cyano-2,3-dimethylphenyl)-5-hydroxy-1H-pyrazol-1-yl)-N-(3-methoxypropyl)nicotinamide]	257	8.24	–
COCCCNC(=O)c1ccc(-n2ncc(-c3ccc(C#N)cc3COC)c2O)nc1 [Example 410, 6-(4-(4-cyano-2-(methoxymethyl)phenyl)-5-hydroxy-1H-pyrazol-1-yl)-N-(3-methoxypropyl)nicotinamide]	513	8.07	–
COCCCNC(=O)c1ccc(-n2ncc(-c3ccc(C#N)c(OC)c3C)c2O)nc1 [Example 411, 6-(4-(4-cyano-3-methoxy-2-methylphenyl)-5-hydroxy-1H-pyrazol-1-yl)-N-(3-methoxypropyl)nicotinamide]	676	8.20	–
Cc1cc(C#N)ccc1-c1cnn(-c2ccc(C(=O)N3CC[C@H](N(C)C)C3)cn2)c1O [Example 412, (S)-4-(1-(5-(3-(dimethylamino)pyrrolidine-1-carbonyl)pyridin-2-yl)-5-hydroxy-1H-pyrazol-4-yl)-3-methylbenzonitrile]	282	8.11	–
Cc1cc(C#N)ccc1-c1cnn(-c2ccc(C(=O)N3CC[C@@H](N(C)C)C3)cn2)c1O [Example 413, (R)-4-(1-(5-(3-(dimethylamino)pyrrolidine-1-carbonyl)pyridin-2-yl)-5-hydroxy-1H-pyrazol-4-yl)-3-methylbenzonitrile]	2090	8.10	–
Cc1cc(C#N)ccc1-c1cnn(-c2ccc(C(=O)N3CCN(C4CC4)CC3)cn2)c1O [Example 414, 4-(1-(5-(4-cyclopropylpiperazine-1-carbonyl)pyridin-2-yl)-5-hydroxy-1H-pyrazol-4-yl)-3-methylbenzonitrile]	832	8.39	–
CCCN1CCN(C(=O)c2ccc(-n3ncc(-c4ccc(C#N)cc4C)c3O)nc2)CC1 [Example 415, 4-(5-hydroxy-1-(5-(4-propylpiperazine-1-carbonyl)pyridin-2-yl)-1H-pyrazol-4-yl)-3-methylbenzonitrile]	–	8.41	6.20
Cc1cc(C#N)ccc1-c1cnn(-c2ccc(C(=O)N3CCC(N(C)C)CC3)cn2)c1O [Example 416, 4-(1-(5-(4-(dimethylamino)piperidine-1-carbonyl)pyridin-2-yl)-5-hydroxy-1H-pyrazol-4-yl)-3-methylbenzonitrile]	1410	7.78	–
Cc1cc(C#N)ccc1-c1cnn(-c2ccc(C(=O)N3CC[C@@H]4CN(C)C[C@@H]4C3)cn2)c1O [Example 417, 4-(5-hydroxy-1-(5-((3aR,7aS)-2-methyloctahydro-1H-pyrrolo[3,4-c]pyridine-5-carbonyl)pyridin-2-yl)-1H-pyrazol-4-yl)-3-methylbenzonitrile]	575	7.87	–
Cc1cc(C#N)ccc1-c1cnn(-c2ccc(C(=O)N3CCN(CC4CC4)CC3)cn2)c1O [Example 418, 4-(1-(5-(4-(cyclopropylmethyl)piperazine-1-carbonyl)pyridin-2-yl)-5-hydroxy-1H-pyrazol-4-yl)-3-methylbenzonitrile]	1170	8.17	–
